This passage reports Ki results from patent US10189836B2, “Therapeutic compounds, compositions and methods of use thereof” (Genentech, Inc., priority 2015, dated 2019).

The target in assay [1] is isolated recombinant JAK2 kinase domain (Homo sapiens (Human), UniProt O60674). Put plainly: JAK2 enzyme assay (Caliper LabChip, Ki). Format: biochemical. To be noted: isolated recombinant JAK2 kinase domain, 0.2 nM enzyme, ATP 25 μM.
Assay [2] deals with isolated recombinant JAK1 kinase domain (Homo sapiens (Human), UniProt P23458). Put plainly: JAK1 enzyme assay (Caliper LabChip, Ki). In kind it is biochemical. To be noted: isolated recombinant JAK1 kinase domain, 1.5 nM enzyme, ATP 25 μM.
isolated recombinant JAK1 kinase domain, sequence (P23458 875-1153): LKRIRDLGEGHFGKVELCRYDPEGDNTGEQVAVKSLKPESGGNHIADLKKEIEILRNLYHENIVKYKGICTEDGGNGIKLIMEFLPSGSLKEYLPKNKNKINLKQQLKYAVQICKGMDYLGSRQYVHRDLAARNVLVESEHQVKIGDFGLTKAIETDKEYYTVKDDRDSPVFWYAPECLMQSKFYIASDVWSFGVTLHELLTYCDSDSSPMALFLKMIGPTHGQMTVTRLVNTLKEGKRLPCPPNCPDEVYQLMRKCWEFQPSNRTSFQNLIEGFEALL

isolated recombinant JAK2 kinase domain, sequence (O60674 849-1124): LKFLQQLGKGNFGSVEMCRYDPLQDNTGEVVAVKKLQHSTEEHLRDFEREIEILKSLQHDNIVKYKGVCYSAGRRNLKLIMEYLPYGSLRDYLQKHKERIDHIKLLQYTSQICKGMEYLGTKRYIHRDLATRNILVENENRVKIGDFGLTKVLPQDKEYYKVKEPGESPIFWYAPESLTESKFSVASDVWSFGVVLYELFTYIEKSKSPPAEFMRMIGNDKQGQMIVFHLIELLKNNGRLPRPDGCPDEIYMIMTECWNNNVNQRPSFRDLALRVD

On to `CN1CCN(C(=O)Cn2cc(Nc3nc4c(N5CC6CCC(C5)N6S(=O)(=O)Cc5ccccc5Cl)cccn4n3)cn2)CC1` [Example 161, 2-[4-[[8-[8-[(2-chlorophenyl)methylsulfonyl]-3,8-diazabicyclo[3.2.1]octan-3-yl]-[1,2,4]triazolo[1,5-a]pyridin-2-yl]amino]pyrazol-1-yl]-1-(4-methylpiperazin-1-yl)ethanone], for which the results for the Ki in assay [1] and in assay [2] were 0.7 nM and 0.6 nM, respectively.
As to `CN1CCN(C(=O)Cn2cc(Nc3nc4c(N5C[C@H]6CC[C@@H](C5)[C@H]6OCc5ccc(F)nc5)cccn4n3)cn2)CC1` [Example 162, 1-(4-methylpiperazin-1-yl)-2-[4-[[8-[rac-(1S,5R)-8-[(6-fluoro-3-pyridyl)methoxy]-3-azabicyclo[3.2.1]octan-3-yl]-[1,2,4]triazolo[1,5-a]pyridin-2-yl]amino]pyrazol-1-yl]ethanone], the inhibition constant Ki in assay [1] and in assay [2] was 0.6 nM in each case.
Turning to `CN1CCN(C(=O)Cn2cc(Nc3nc4c(N5C[C@H]6CC[C@@H](C5)[C@H]6N(C)C(=O)CC(F)(F)F)cccn4n3)cn2)CC1` [Example 164, 3,3,3-trifluoro-N-methyl-N-[rac-(1S,5R)-3-[2-[[1-[2-(4-methylpiperazin-1-yl)-2-oxo-ethyl]pyrazol-4-yl]amino]-[1,2,4]triazolo[1,5-a]pyridin-8-yl]-3-azabicyclo[3.2.1]octan-8-yl]propanamide], the figures for the inhibitory constant (Ki) in assay [1] and in assay [2] were 1 nM and 0.7 nM, respectively.
On the same counts, the results for `CN1CCN(C(=O)Cn2cc(Nc3nc4c(N5CC6CCC(C5)N6S(=O)(=O)Cc5cccc(Cl)c5)cccn4n3)cn2)CC1` [Example 165, 2-[4-[[8-[8-[(3-chlorophenyl)methylsulfonyl]-3,8-diazabicyclo[3.2.1]octan-3-yl]-[1,2,4]triazolo[1,5-a]pyridin-2-yl]amino]pyrazol-1-yl]-1-(4-methylpiperazin-1-yl)ethanone] are 0.8 nM and 0.4 nM.
Take `CN1CCN(C(=O)Cn2cc(Nc3nc4c(N5CC6CCC(C5)N6S(=O)(=O)Cc5ccc(Cl)cc5)cccn4n3)cn2)CC1` [Example 166, 2-[4-[[8-[8-[(4-chlorophenyl)methylsulfonyl]-3,8-diazabicyclo[3.2.1]octan-3-yl]-[1,2,4]triazolo[1,5-a]pyridin-2-yl]amino]pyrazol-1-yl]-1-(4-methylpiperazin-1-yl)ethanone]: the inhibitory constant (Ki) (as a rule, a dissociation constant, usually derived from enzyme kinetics or from competition with a known ligand) in assay [1] worked out at 0.9 nM; in assay [2], 0.7 nM.
Consider `CN1CCN(C(=O)Cn2cc(Nc3nc4c(N5CC6CCC(C5)N6S(=O)(=O)Cc5ccccc5C(F)(F)F)cccn4n3)cn2)CC1` [Example 167, 1-(4-methylpiperazin-1-yl)-2-[4-[[8-[8-([2-(trifluoromethyl)phenyl]methylsulfonyl]-3,8-diazabicyclo[3.2.1]octan-3-yl]-[1,2,4]triazolo[1,5-a]pyridin-2-yl]amino]pyrazol-1-yl]ethanone], for which the Ki came out at 1 nM in assay [1] and 0.6 nM in assay [2].
Consider `CN1CCN(C(=O)Cn2cc(Nc3nc4c(N5CC6CCC(C5)N6S(=O)(=O)Cc5ccc(C#N)cc5)cccn4n3)cn2)CC1` [Example 168, 4-[[3-[2-[[1-[2-(4-methylpiperazin-1-yl)-2-oxo-ethyl]pyrazo1-4-yl]amino]-[1,2,4]triazolo[1,5-a]pyridin-8-yl]-3,8-diazabicyclo[3.2.1]octan-8-yl]sulfonylmethyl]-benzonitrile], for which the Ki in assay [1] is 4.4 nM; in assay [2], 2.7 nM.
With `CSc1cccc(S(=O)(=O)N2C3CCC2CN(c2cccn4nc(Nc5cnn(CC(=O)N6CCN(C)CC6)c5)nc24)C3)c1` [Example 169, 1-(4-methylpiperazin-1-yl)-2-[4-[[8-[8-(3-methylsulfanylphenyl)sulfonyl-3,8-diazabicyclo[3.2.1]octan-3-yl]-[1,2,4]triazolo[1,5-a]pyridin-2-yl]amino]pyrazol-1-yl]ethanone], the Ki in assay [1] and in assay [2] was 0.6 nM each time.
